Measurements as given in PMC8672851 (Science translational medicine, 2021).

What was measured:
MLL-AF9 cells = assay: MLL-AF9 syngeneic AML mouse model; assay type: in vivo; conditions: for leukemic disease burden: peripheral blood / bone marrow
[1] = system: panel of human cancer cell lines; assay: viability across a panel of human cancer cell lines; assay type: cell-based; conditions: 131 human cancer cell lines, 16 cancer types; three days
[2] = system: primary patient AML blasts; assay: colony-forming assay of primary patient AML samples in methylcellulose; assay type: cell-based, human; conditions: leukemia cells from patients with AML
[3] = assay type: in vivo; conditions: mice
[4] = phase I trial; ref NCT02243917; cited from earlier work
MV4-11-luc cells = conditions: MV4-11 xenograft
[5] = system: patient-derived primary AML cells; assay: orthotopic patient-derived xenograft; assay type: in vivo, mouse; conditions: PDX; for leukemic disease burden: hCD45+ cells in peripheral blood or bone marrow
γH2AX = assay: FACS analysis of intracellular gammaH2AX in AML cells; assay type: cell-based, human
P-ATM (S1981) = assay: ATM phosphorylation upon etoposide DSB induction; assay type: cell-based, human; conditions: upon etoposide DSBs induction
human cone PDE6 (PDE6C) = conditions: in vitro biochemical assays; relative to CB-5083
[6] = system: poly-ubiquitinated proteins, GRP78, spliced XBP-1, ATF-4; assay type: cell-based, human
MV4-11 cells [7] = assay: cellular viability of MV4-11 AML cell line; assay type: cell-based, human
MV4-11 cells [8] = assay: combination with doxorubicin in MV4-11 cell line; assay type: cell-based, human; conditions: MV4-11 AML cell line
[9] = in vivo
[10] = preclinical pharmacokinetics in multiple species; assay type: in vivo; conditions: preclinical studies in multiple species
[11] = cited from earlier work
[12] = system: UT-7 cells expressing VCP (A530T); assay: growth inhibition of UT-7 cells expressing NMS-873-resistant VCP; assay type: cell-based, human; conditions: four days
RG37-DR-GFP cells = assay: homologous recombination reporter; assay type: cell-based; conditions: 0.4 μM; 48 hours post-transfection with I-SceI
[13] = system: MV4-11 and UT-7 AML cell lines; assay: Annexin V/propidium iodide staining and flow cytometry; assay type: cell-based, human; conditions: 0.2 μM for 8 days
GC92-NHEJ-CD4 cells = assay: non-homologous end-joining reporter; assay type: cell-based; conditions: 0.4 μM; 48 hours post-transfection with I-SceI

Cc1cc2c(C(N)=O)cccc2n1-c1nc2c(c(NCc3ccccc3)n1)COCC2 [CB-5083]
survival (MLL-AF9 cells): prolonged mice survival
leukemic disease burden (MLL-AF9 cells): decreased disease burden
sensitivity of AML cell lines versus other cancer subtypes [1]: more sensitive
colony formation of AML blasts [2]: impaired the capacity of AML blasts to form colonies
tolerability (weight, blood counts) [3]: no major weight loss or hematopoietic toxicity
myelosuppression in patients [4]: not myelosuppressive
disease burden (bioluminescence) (MV4-11-luc cells): decreased disease burden
survival (MV4-11-luc cells): prolonged mice survival
leukemic disease burden [5]: substantially decreased disease burden

Cc1cc2c(C(N)=O)cccc2n1-c1nc2c(c(NCc3ccccc3)n1)CCCN2 [CB-5339]
effect on γH2AX accumulation (γH2AX; 0.2 μM): increased γH2AX accumulation
survival (MLL-AF9 cells): prolonged survival
leukemic disease burden (MLL-AF9 cells): decreased circulating leukemic cells
effect on ATM phosphorylation (P-ATM (S1981)): impaired ATM phosphorylation
fold less active on human cone PDE6 (PDE6C) compared to CB-5083 (human cone PDE6 (PDE6C)): 15 fold
concentration at which ATF-4 accumulated ([6]; AML context): ≥ 0.8 µM
concentration at which ER stress marker GRP78 accumulated ([6]; AML context): ≥ 0.4 µM
concentration at which spliced XBP-1 accumulated ([6]; AML context): ≥ 1.6 µM
concentration inducing polyubiquitin protein accumulation ([6]; AML context, dose-dependent): ≥ 0.4 µM
IC50 (MV4-11 cells [7]): 186 nM
interaction with doxorubicin (MV4-11 cells [8]): synergized with doxorubicin
tolerability (weight, blood counts) [3]: well tolerated
times lower Cmax in rat retina compared to CB-5083 [9]: 31 times
survival ([5]; 90 mg/kg): prolonged mice survival
leukemic disease burden [5]: decreased bone marrow leukemic infiltration
bioavailability compared to CB-5083 [10]: higher bioavailability
clearance compared to CB-5083 [10]: lower clearance

Cc1cc(OCc2nnc(SC3CCCC3)n2-c2cccnc2)ccc1-c1ccc(S(C)(=O)=O)cc1 [NMS-873]
pharmacological and bioavailability properties [11]: lacks appropriate pharmacological and bioavailability properties
effect on γH2AX (γH2AX; MV4-11 and UT-7, 0.4 μM, 72 hours): increased γH2AX
effect of VCP (A530T) expression on compound-induced loss of viability [12]: rescued the loss of viability
colony formation of AML blasts [2]: impaired the capacity of AML blasts to form colonies
effect on homologous recombination (HR) DSB repair (RG37-DR-GFP cells): impairment of HR
concentration at which poly-ubiquitinated proteins started to accumulate ([6]; AML cells): 5 µM
cell death / apoptosis [13]: induced Annexin-positive cell death
effect on non-homologous end-joining (NHEJ) (GC92-NHEJ-CD4 cells): did not impair NHEJ
